In US12472185B2, “Methods for killing antibiotic tolerant bacteria” (THE PENN STATE RESEARCH FOUNDATION, priority 2020, dated 2025):
≈ marks a conversion by molar mass, not a printed value. Where “and” joins values, the source holds several entries; their conditions need not be identical. Equal values may be shown once.

Legend:
[1] = tested on: E. coli BW25113 exponential cells; test: Survival of exponentially-growing cells (drop assay); type: cell-based, Escherichia coli; conditions: 100 μM, 6 hr
Protocol: (§1) FIG. 2. NPIMA eradicates Escherichia coli, Pseudomonas aeruginosa, and Staphylococcus aureus exponential cells. Survival after 6 hr for (a) E. coli BW25113 with NPIMA and 5-iodoindole at 100 μM, (b) P. aeruginosa PA14 with NPIMA and 5-iodoindole at 100 μM, and (c) S. aureus with NPIMA and 5-iodoindole at 200 μM. Asterisk indicates no viable cells detected. NPIMA, 5-nitro-3-phenyl-1H-indol-2-yl-methylamine hydrochloride.
FIG. 8. NPIMA structure function relationships. Exponential cells of Escherichia coli BW25113 were treated with (a) 2-(aminomethyl) indole, and (b) 2-methyl-5-nitro-3-phenyl-1H-indole for 6 hr. NPIMA, 5-nitro-3-phenyl-1Hindol-2-yl-methylamine hydrochloride.
(§2) For bacterial viability, cells were washed twice with 0.85% NaCl, resuspended in 1×PBS, and cell counts were determined via the drop assay (Donegan, Matyac, Seidler, & Porteous, 1991). For human cell viability, pre-cultured human cancer HT-29 cells were dispensed in 98 μl in 96-well plates with approximately 5,000 cells/well. NPIMA was added (2 μl) to produce concentrations of 5, 10, 100, and 200 μM. For controls, Triton X-100 (positive control) and DMSO (negative solvent control), were used, and the medium was used for background. Plates were incubated in a humidified incubator (37° C., 5% CO2) for 24 hr. Cell viability was determined via a cell counting kit (CCK-8 Kit, ab228554; Abcam), and cytotoxicity was determined via the lactate dehydrogenase (LDH) assay (LDH Assay Kit, MK401; Takara).

[2] = tested on: E. coli K-12 BW25113; test: Minimum inhibitory concentration (MIC); type: cell-based; conditions: Escherichia coli, LB, 24 hr
Protocol: (§3) The bacteria used in this study are E. coli K-12 BW25113 (Baba et al., 2006), S. aureus ATCC29213, and P. aeruginosa PA14 (Liberati et al., 2006). Lysogeny broth (LB; Bertani, 1951) was used at 37° C. for culturing the bacteria. 2-(Aminomethyl)-indole was obtained from Sigma-Aldrich (catalog number 563838), and 2-methyl-5-nitro-3-phenyl-1H-indole was obtained from ChemBridge (San Diego, CA).
(§4) To determine the MICs of NPIMA and 5-iodoindole for E. coli K-12, S. aureus, and P. aeruginosa PA14, cells were inoculated into LB at varying concentrations and grown for 24 hr. The MIC was determined as the lowest concentration that prevented an increase in growth as evidenced by a lack of change of turbidity.

[3] = tested on: S. aureus ATCC29213; test: Minimum inhibitory concentration (MIC); type: cell-based; conditions: Staphylococcus aureus, LB, 24 hr
Protocol: as §3, §4

[4] = tested on: P. aeruginosa PA14; test: Minimum inhibitory concentration (MIC); type: cell-based; conditions: Pseudomonas aeruginosa, LB, 24 hr
Protocol: as §3, §4

[5] = tested on: E. coli persister cells; conditions: 1 mM; Lee et al., 2016; cited from earlier work
[6] = tested on: E. coli BW25113 persister cells; test: Survival of persister cells (rifampicin/ampicillin generated); type: cell-based, Escherichia coli; conditions: 100 μM, 6 hr
Protocol: FIG. 3. NPIMA kills Escherichia coli, Pseudomonas aeruginosa, persister cells. Survival of (a) E. coli BW25113 and (b) P. aeruginosa PA14 after treatment with NPIMA (100 μM), 5-iodoindole (5-II, 100 μM), and DMSO for 6 hr. Asterisk indicates no viable cells detected. DMSO, dimethyl sulfoxide; NPIMA, 5-nitro-3-phenyl-1H-indol-2-yl-methylamine hydrochloride.
E. coli persister cells were prepared following our previous method (Kim, Yamasaki, et al., 2018; Kwan, Valenta, Benedik, & Wood, 2013). Exponentially-growing cells (turbidity of 0.8 at 600 nm) were treated with rifampicin (100 μg/ml for 30 min) to stop transcription, washed, and any remaining nonpersister cells were lysed by ampicillin in LB (100 μg/ml for 3 hr). Cells were harvested by centrifugation (17,000 g for 1 min) and washed with 1× phosphate-buffered saline buffer (PBS, 8 g NaCl, 0.2 g KCl, 1.15 g Na2HPO4, and 0.2 g KH2PO4 per 1,000 ml) twice to remove all possible carbon sources, then resuspended with 1×PBS. Natural E. coli persister cells were generated by treating stationary-phase cells (turbidity of 6 at 600 nm) with ampicillin (100 μg/ml) for 3 hr. P. aeruginosa PA14 persister cells were prepared by incubating to the stationary phase, diluting sixfold, and treating with carbonyl cyanide m-chlorophenylhydrazone (CCCP, 50 mg/ml stock solution in dimethly sulfoxide [DMSO]) to stop adenosine triphosphate (ATP) production (200 μg/ml for 3 hr), washed twice with 0.85% NaCl (5,000 g for 10 min), and any nonpersister cells were killed by ciprofloxacin (5 μg/ml) in LB for 3 hr. Following the antibiotic treatment, bacteria were washed twice with 0.85% NaCl (5,000 g for 10 min).
For bacterial viability, cells were washed twice with 0.85% NaCl, resuspended in 1×PBS, and cell counts were determined via the drop assay (Donegan, Matyac, Seidler, & Porteous, 1991). […] Cell viability was determined via a cell counting kit (CCK-8 Kit, ab228554; Abcam), and cytotoxicity was determined via the lactate dehydrogenase (LDH) assay (LDH Assay Kit, MK401; Takara).

[7] = tested on: S. aureus cells; test: Survival of cells (drop assay); type: cell-based, Staphylococcus aureus; conditions: 200 μM
Protocol: as §1, §2

[8] = tested on: P. aeruginosa PA14 exponential cells; test: Survival of exponentially-growing cells (drop assay); type: cell-based, Pseudomonas aeruginosa; conditions: 100 μM
Protocol: as §1, §2

[9] = tested on: E. coli persister cells; test: Re-test of resuscitation hits in minimal alanine medium, 96-well plates; type: cell-based, Escherichia coli; conditions: 100 μM
Protocol: ChemBridge screen to identify resuscitation compounds. To identify compounds that resuscitate E. coli persister cells, the DIVERset Library from ChemBridge (San Diego, CA) containing 10,000 druglike compounds with high pharmacophore diversity was evaluated by adding 4 μL of each compound (final concentration 100 μM, dissolved in DMSO) to 186 μL of LB in 96 well plates and then adding 10 μL of persister cells. The negative control was 2 vol % DMSO. Resuscitation was calculated as the change in turbidity at 600 nm. The compounds that were identified initially were re-tested in M9 minimal medium with 5× alanine (24).

[10] = tested on: E. coli BW25113 persister cells; test: Single-cell persister resuscitation; type: cell-based, Escherichia coli; conditions: 100 μM, M9 alanine (5×) agarose gel pads, 6 h
Source text: FIG. 12. RluD increases persister resuscitation by increasing ribosomes for resuscitation. (A) Single-cell persister resuscitation as determined using light microscopy (Zeiss Axio Scope.A1). The fold-change in resuscitation is relative to BW25113 with DMSO for BW25113 with BPOET, relative to BW25113 for the ΔrluD mutant, relative to BW25113/pCA24N for the strain producing RluD from pCA24N plasmid in BW25113, and relative to MG1655 for ΔrybB. M9 glucose (0.4%) agarose gel pads were used for all the strains except BW25113 with BPOET where M9 alanine (5×) agarose gel pads including 100 μM of BPOET or DMSO were used. The results are the combined observations from two independent experiments after 6 h for the BW25113 with BPOET, after 4 h for BW25113 and its deletion mutants, and after 6 h for cells harboring pCA24N and its derivatives as well as for MG1655 and MG1655 ΔrybB. Error bars indicate standard deviations. (B) Active 70S ribosomes in single persister cells for MG1655-ASV/pCA24N-rluD (“RluD”) VS. MG1655-ASV/pCA24N (“Empty”). Cells are shown on agarose gel pads at time 0 for resuscitation; i.e., after the formation of persister cells. Representative results from three independent cultures are shown.
Single-cell persister resuscitation. As described previously (19), 5 μL of cell populations consisting of 100% persister cells were added to 1.5% agarose gel pads containing either M9 medium with glucose (0.4 wt %) or alanine (5×) as a carbon source (24), and resuscitation was monitored at 37° C. via a light microscope (Zeiss Axio Scope.A1, bl_ph channel at 1000 ms exposure).
Table 5. Single persister cell resuscitation. Single-cell persister resuscitation as determined using light microscopy (Zeiss Axio Scope.A1) using agarose gel pads. The fold-change in resuscitation is relative to BW25113 with DMSO for BW25113 with BPOET, relative to BW25113 for the ΔrluD, relative to BW25113/pCA24N for the strain producing RluD from pCA24N in BW25113, and relative to MG1655 for ΔrybB. […]

[11] = tested on: E. coli persister cells; test: ChemBridge screen for persister cell killing; type: cell-based, Escherichia coli; conditions: 100 μM, 24 hr
Protocol: FIG. 1. […] Escherichia coli persister cells were treated for 24 hr at 100 μM with: • 1: N-(3,4-dichlorophenyl)-N′-(3-fluorophenyl) thiourea; • 2: 2-({2-[(4-bromophenyl)amino]-4-quinazolinyl}amino)ethanol hydrochloride; • 3: 2-[(6-phenyl-2,3,4,9-tetrahydro-1H-carbazol-1-yl)amino] ethanol; • 4: 1-(3,6-dichloro-9H-carbazol-9-yl)-3-(2-methyl-1H-imidazol-1-yl)-2-propanol; • 5: N-[2-(4-fluorophenyl)ethyl]-N′-(4-nitrophenyl) thiourea; • 6: N-(4-chlorobenzyl)-N′-4-pyridinylthiourea; • 7: N′-(3,5-dichloro-2-hydroxybenzylidene)-2-oxo-4-phenyl-3-pyrrolidinecarbohydrazide; and • 8: [(5-nitro-3-phenyl-1H-indol-2-yl)methyl]amine hydrochloride (NPIMA, structure shown in inset).
To identify compounds that kill E. coli persister cells, 10,000 compounds of the DIVERset Library from ChemBridge (San Diego, CA) were tested by adding 4 μl of each (in DMSO, final concentration 100 μM) to 186 μl of LB in 96-well plates along with 10 μl of persister cells; the persister cells were added after the ChemBridge chemical since LB wakes persister cells (Kim, Yamasaki, et al., 2018). For the negative control, pure DMSO (final concentration 2 vol %) was used. The degree of inhibition was determined by the change in turbidity at 600 nm after 24 hr. The best 26 compounds were re-tested with the same conditions.
To screen directly for killing persister cells, a high-throughput approach using 96-well microtiter plates was devised that consisted of (a) washing persister cells formed from exponentially-growing cells using rifampicin pretreatment followed by ampicillin treatment, (b) adding 10 μl of the persister cells to 190 μl of LB containing one each of the 10,000 compounds of the DiverSet library dissolved in dimethyl sulfoxide (100 μM final concentration), and (c) monitoring for growth via change in turbidity for 24 hr. With this approach, we allowed for up to a 140-fold change in turbidity (0.005 could be increased to 0.69).

With NCc1cc2ccccc2[nH]1 [2-(aminomethyl)-indole] as the compound, how does the “killing of exponential E. coli cells” value [1] read?
The value was “unable to kill E. coli”.

Which “killing of exponential E. coli cells” value [1] does the source give for Cc1[nH]c2ccc([N+](=O)[O-])cc2c1-c1ccccc1 [2-methyl-5-nitro-3-phenyl-1H-indole] here?
Its value is “unable to kill E. coli”.

What does the source list for Ic1ccc2[nH]ccc2c1 [5-iodoindole, reference compound]?
MIC [2]: 2000 µM (≈ 486 µg/mL); MIC [3]: 2000 µM (≈ 486 µg/mL); MIC [4]: 2000 µM (≈ 486 µg/mL); persisters killed [5]: 99.993%; killing of E. coli persister cells [6]: much less effective; killing of S. aureus [7]: ineffective; killing of exponential E. coli cells [1]: much less effective; killing of P. aeruginosa [8]: ineffective

What does the source list for CCn1c(SCC(=O)c2ccc(Br)cc2)nc2sc3c(c2c1=O)CCCC3 [BPOET, 2-{[2-(4-bromophenyl)-2-oxoethyl]thio}-3-ethyl-5,6,7,8-tetrahydro[1]benzothieno[2,3-d]pyrimidin-4(3H)-one]?
increase in persister cell waking based on turbidity [9]: 44 fold; % waking [10]: 20 ± 13%; Fold-change in resuscitation relative to BW25113 with DMSO [10]: 4 fold and 4 ± 3 fold; Waking cells [10]: 38 ± 18

For Fc1cccc(NC(=S)Nc2ccc(Cl)c(Cl)c2)c1 [compound 1, N-(3,4-dichlorophenyl)-N′-(3-fluorophenyl) thiourea], which “persister killing, second screen (FIG. 1)” value (shortened to “persister killing”) [11] is on record?
Its value is “Most effective”.

Which “persister killing” value [11] does the source give for Cl.OCCNc1nc(Nc2ccc(Br)cc2)nc2ccccc12 [compound 2, 2-({2-[(4-bromophenyl)amino]-4-quinazolinyl}amino)ethanol hydrochloride] here?
The value was “Most effective”.

For OCCNC1CCCc2c1[nH]c1ccc(-c3ccccc3)cc21 (centres unmarked) [compound 3, 2-[(6-phenyl-2,3,4,9-tetrahydro-1H-carbazol-1-yl)amino] ethanol], which “persister killing” value [11] is on record?
The value was “Most effective”.

With Cc1nccn1CC(O)Cn1c2ccc(Cl)cc2c2cc(Cl)ccc21 (centres unmarked) [compound 4, 1-(3,6-dichloro-9H-carbazol-9-yl)-3-(2-methyl-1H-imidazol-1-yl)-2-propanol] as the compound, how does the “persister killing” value [11] read?
The value was “Most effective”.

For S=C(NCc1ccc(Cl)cc1)Nc1ccncc1 [compound 6, N-(4-chlorobenzyl)-N′-4-pyridinylthiourea], which “persister killing” value [11] is on record?
Its value is “Most effective”.

With O=C1NCC(c2ccccc2)C1C(=O)N/N=C\c1cc(Cl)cc(Cl)c1O (centres unmarked) [compound 7, N′-(3,5-dichloro-2-hydroxybenzylidene)-2-oxo-4-phenyl-3-pyrrolidinecarbohydrazide] as the compound, how does the “persister killing” value [11] read?
Its value is “Most effective”.
